According to PubChem BioAssay AID2060616 (Molecular Pharmacology Branch, DTP, NCI, 2025):

Tested on: 377384-186-R-J1-PDC complex spheroid viability
Assay: Anticancer human tumor 377384-186-R-J1-PDC patient-derived pancreatic carcinoma cell line growth inhibition [CLK]
Settings: for IC50: curve of first compound; for viability, T/C: stronger effect = lower value
Method in brief: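 Multi-cell-type spheroids combined patient-derived tumor cells with HUVEC endothelial cells and human mesenchymal stem cells. Paired agents were dosed in half-log steps down from about clinical Cmax, or from 10 microM where Cmax was unknown.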

[1] = second compound 0.0316 µM, first compound 0.0316 µM
[2] = second compound 0.0316 µM, first compound 0.1 µM
[3] = second compound 0.0316 µM, first compound 0.316 µM
[4] = second compound 0.0316 µM, first compound 1 µM
[5] = second compound 0.0316 µM, first compound 3.16 µM
[6] = second compound 0.0316 µM, first compound 10 µM
[7] = second compound 0.1 µM, first compound 0.0316 µM
[8] = second compound 0.1 µM, first compound 0.1 µM
[9] = second compound 0.1 µM, first compound 0.316 µM
[10] = second compound 0.1 µM, first compound 1 µM
[11] = second compound 0.1 µM, first compound 3.16 µM
[12] = second compound 0.1 µM, first compound 10 µM
[13] = second compound 0.316 µM, first compound 0.0316 µM
[14] = second compound 0.316 µM, first compound 0.1 µM
[15] = second compound 0.316 µM, first compound 0.316 µM
[16] = second compound 0.316 µM, first compound 1 µM
[17] = second compound 0.316 µM, first compound 3.16 µM
[18] = second compound 0.316 µM, first compound 10 µM
[19] = second compound 1 µM, first compound 0.0316 µM
[20] = second compound 1 µM, first compound 0.1 µM
[21] = second compound 1 µM, first compound 0.316 µM
[22] = second compound 1 µM, first compound 1 µM
[23] = second compound 1 µM, first compound 3.16 µM
[24] = second compound 1 µM, first compound 10 µM
[25] = second compound 3.16 µM, first compound 0.0316 µM
[26] = second compound 3.16 µM, first compound 0.1 µM
[27] = second compound 3.16 µM, first compound 0.316 µM
[28] = second compound 3.16 µM, first compound 1 µM
[29] = second compound 3.16 µM, first compound 3.16 µM
[30] = second compound 3.16 µM, first compound 10 µM
[31] = second compound 10 µM, first compound 0.0316 µM
[32] = second compound 10 µM, first compound 0.1 µM
[33] = second compound 10 µM, first compound 0.316 µM
[34] = second compound 10 µM, first compound 1 µM
[35] = second compound 10 µM, first compound 3.16 µM
[36] = second compound 10 µM, first compound 10 µM
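Note: spheroids exposed to agents for 7 days before reading.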
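Throughout, for viability, T/C: luminescence signal used as a stand-in for viable cells.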

For `Nc1ccn(C2OC(CO)C(O)C2(F)F)c(=O)n1` (stereo unspecified) + CN1CCN(c2cc(C(=O)Nc3cc4cc(-c5cnn(C)c5)ccc4cn3)ccn2)CC1, the IC50 (second compound 0.0316 µM) was < 0.0316 µM, the IC50 (second compound 0.1 µM) was < 0.0316 µM and the IC50 (second compound 0.316 µM) was < 0.0316 µM. For the same compound, the IC50 (second compound 1 µM) was < 0.0316 µM, the IC50 (second compound 3.16 µM) was < 0.0316 µM and the IC50 (second compound 10 µM) was < 0.0316 µM. For the same compound, the viability, T/C [1] was 7.87%, the viability, T/C [2] was 4.22% and the viability, T/C [3] was 5.68%. The viability, T/C [4] was 2.98%, the viability, T/C [5] was 2.97% and the viability, T/C [6] was 2.28%. For the same compound, the viability, T/C [7] was 9.1%, the viability, T/C [8] was 4.08% and the viability, T/C [9] was 3.35%. It also gave a viability, T/C [10] of 3.48%, a viability, T/C [11] of 2.39% and a viability, T/C [12] of 1.85%. It also gave a viability, T/C [13] of 11.6%, a viability, T/C [14] of 6.64% and a viability, T/C [15] of 4.53%. For the same compound, the viability, T/C [16] was 3.35%, the viability, T/C [17] was 2.23% and the viability, T/C [18] was 2.18%. It also gave a viability, T/C [19] of 1.03%, a viability, T/C [20] of 0.46% and a viability, T/C [21] of 1.22%. For the same compound, the viability, T/C [22] was 0.37%, the viability, T/C [23] was 0.88% and the viability, T/C [24] was 1.48%. The viability, T/C [25] was 0.37%, the viability, T/C [26] was 0.29% and the viability, T/C [27] was 0.92%. It also gave a viability, T/C [28] of 0.2%, a viability, T/C [29] of 0.33% and a viability, T/C [30] of 0.29%. The viability, T/C [31] was 0.21%, the viability, T/C [32] was 0.61% and the viability, T/C [33] was 0.42%. It also gave a viability, T/C [34] of 0.38%, a viability, T/C [35] of 0.23% and a viability, T/C [36] of 0.54%.
With `O=C(c1cc(Cc2n[nH]c(=O)c3ccccc23)ccc1F)N1CCN(C(=O)C2CC2)CC1` + CN1CCN(c2cc(C(=O)Nc3cc4cc(-c5cnn(C)c5)ccc4cn3)ccn2)CC1 the IC50 (second compound 0.0316 µM) was > 10 µM, the IC50 (second compound 0.1 µM) was 6.68 µM and the IC50 (second compound 0.316 µM) was < 0.0316 µM. For the same compound, the IC50 (second compound 1 µM) was < 0.0316 µM, the IC50 (second compound 3.16 µM) was < 0.0316 µM and the IC50 (second compound 10 µM) was < 0.0316 µM. For the same compound, the viability, T/C [1] was 87.8%, the viability, T/C [2] was 85.3% and the viability, T/C [3] was 81%. It also gave a viability, T/C [4] of 77.7%, a viability, T/C [5] of 65.1% and a viability, T/C [6] of 52.7%. For the same compound, the viability, T/C [7] was 83.9%, the viability, T/C [8] was 89.8% and the viability, T/C [9] was 77%. The viability, T/C [10] was 78.5%, the viability, T/C [11] was 63.3% and the viability, T/C [12] was 42.6%. For the same compound, the viability, T/C [13] was 24%, the viability, T/C [14] was 32.5% and the viability, T/C [15] was 27.3%. It also gave a viability, T/C [16] of 27.1%, a viability, T/C [17] of 24.1% and a viability, T/C [18] of 22.7%. For the same compound, the viability, T/C [19] was 1.23%, the viability, T/C [20] was 1.25% and the viability, T/C [21] was 1.1%. It also gave a viability, T/C [22] of 1.53%, a viability, T/C [23] of 1.47% and a viability, T/C [24] of 0.93%. For the same compound, the viability, T/C [25] was 0.4%, the viability, T/C [26] was 0.39% and the viability, T/C [27] was 0.42%. For the same compound, the viability, T/C [28] was 0.45%, the viability, T/C [29] was 0.37% and the viability, T/C [30] was 1.27%. For the same compound, the viability, T/C [31] was 0.42%, the viability, T/C [32] was 1.09% and the viability, T/C [33] was 1.28%. The viability, T/C [34] was 0.44%, the viability, T/C [35] was 0.49% and the viability, T/C [36] was 0.38%.
In the case of `O=c1[nH]cc(F)c(=O)[nH]1` + CN1CCN(c2cc(C(=O)Nc3cc4cc(-c5cnn(C)c5)ccc4cn3)ccn2)CC1, the IC50 (second compound 0.0316 µM) is reported as 7.6 µM, the IC50 (second compound 0.1 µM) is reported as > 10 µM and the IC50 (second compound 0.316 µM) is reported as < 0.0316 µM. For the same compound, the IC50 (second compound 1 µM) was < 0.0316 µM, the IC50 (second compound 3.16 µM) was < 0.0316 µM and the IC50 (second compound 10 µM) was < 0.0316 µM. For the same compound, the viability, T/C [1] was 121%, the viability, T/C [2] was 122% and the viability, T/C [3] was 91.6%. The viability, T/C [4] was 84.5%, the viability, T/C [5] was 60.1% and the viability, T/C [6] was 46.5%. For the same compound, the viability, T/C [7] was 104%, the viability, T/C [8] was 107% and the viability, T/C [9] was 92.2%. The viability, T/C [10] was 94.4%, the viability, T/C [11] was 65.4% and the viability, T/C [12] was 56.1%. For the same compound, the viability, T/C [13] was 25.5%, the viability, T/C [14] was 28.4% and the viability, T/C [15] was 22.2%. For the same compound, the viability, T/C [16] was 29.3%, the viability, T/C [17] was 28.3% and the viability, T/C [18] was 21.5%. For the same compound, the viability, T/C [19] was 1.11%, the viability, T/C [20] was 0.76% and the viability, T/C [21] was 1.57%. For the same compound, the viability, T/C [22] was 1.15%, the viability, T/C [23] was 0.86% and the viability, T/C [24] was 1.02%. The viability, T/C [25] was 0.29%, the viability, T/C [26] was 0.87% and the viability, T/C [27] was 1.83%. For the same compound, the viability, T/C [28] was 0.32%, the viability, T/C [29] was 0.25% and the viability, T/C [30] was 0.31%. It also gave a viability, T/C [31] of 0.28%, a viability, T/C [32] of 0.51% and a viability, T/C [33] of 0.49%. It also gave a viability, T/C [34] of 0.42%, a viability, T/C [35] of 0.53% and a viability, T/C [36] of 1.86%.
